Results published in article PMC10174618, “Monoterpenoid aryl hydrocarbon receptor allosteric antagonists protect against ultraviolet skin damage in female mice” (Nature Communications, 2023).

Tests used:
Experiment in all cases: biochemical
Design in all cases: KINOMEscan scanMAX active site-directed competition binding assay, percent of control, 468 kinases
Conditions in all cases: competition binding, percent of control
[1] = biological target: T1, SNARK (Homo sapiens, UniProt Q9H093)
T1 construct: gene NUAK2
Procedure, shortened: (§1)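 KINOMEscan active site-directed competition binding assay against 468 human kinases with 100 μM S-carvone. Binding expressed as % of control, with 35% of control as the inhibition threshold.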

[2] = biological target: T2, DRAK1 (Homo sapiens, UniProt Q9UEE5)
T2 construct: gene STK17A
Procedure, shortened: as §1

[3] = biological target: TAOK2 (Homo sapiens, UniProt Q9UL54)
Procedure, shortened: as §1

[4] = biological target: T3, ZAK (Homo sapiens, UniProt Q9NYL2)
T3 construct: gene MAP3K20
Procedure, shortened: as §1

[5] = biological target: VRK2 (Homo sapiens, UniProt Q86Y07)
Procedure, shortened: as §1

[6] = biological target: PKMYT1 (Homo sapiens, UniProt Q99640)
Procedure, shortened: as §1

[7] = biological target: ACVR1 (Homo sapiens, UniProt Q04771)
Procedure, shortened: as §1

[8] = biological target: EGFR(E746-A750del) (Homo sapiens, UniProt P00533, DEL746-750)
Procedure, shortened: as §1

[9] = biological target: MYO3A (Homo sapiens, UniProt Q8NEV4)
Procedure, shortened: as §1

[10] = biological target: T4, ABL1(F317L)-nonphosphorylated (Homo sapiens, UniProt P00519, F317L)
T4 construct: nonphosphorylated
Procedure, shortened: as §1

[11] = biological target: MYLK4 (Homo sapiens, UniProt Q86YV6)
Procedure, shortened: as §1

[12] = biological target: BRAF (Homo sapiens, UniProt P15056)
Procedure, shortened: as §1

[13] = biological target: IRAK4 (Homo sapiens, UniProt Q9NWZ3)
Procedure, shortened: as §1

[14] = biological target: CLK4 (Homo sapiens, UniProt Q9HAZ1)
Procedure, shortened: as §1

[15] = biological target: SRPK1 (Homo sapiens, UniProt Q96SB4)
Procedure, shortened: as §1

[16] = biological target: FRK (Homo sapiens, UniProt P42685)
Procedure, shortened: as §1

[17] = biological target: TNNI3K (Homo sapiens, UniProt Q59H18)
Procedure, shortened: as §1

[18] = biological target: T5, RSK3(Kin.Dom.2-C-terminal) (Homo sapiens, UniProt Q15349)
T5 construct: gene RPS6KA2; Kin.Dom.2-C-terminal
Procedure, shortened: as §1

[19] = biological target: ERN1 (Homo sapiens, UniProt O75460)
Procedure, shortened: as §1

[20] = biological target: CSNK1A1 (Homo sapiens, UniProt P48729)
Procedure, shortened: as §1

[21] = biological target: PHKG1 (Homo sapiens, UniProt Q16816)
Procedure, shortened: as §1

[22] = biological target: WNK2 (Homo sapiens, UniProt Q9Y3S1)
Procedure, shortened: as §1

Chain of PHKG1 (Q16816 whole entry): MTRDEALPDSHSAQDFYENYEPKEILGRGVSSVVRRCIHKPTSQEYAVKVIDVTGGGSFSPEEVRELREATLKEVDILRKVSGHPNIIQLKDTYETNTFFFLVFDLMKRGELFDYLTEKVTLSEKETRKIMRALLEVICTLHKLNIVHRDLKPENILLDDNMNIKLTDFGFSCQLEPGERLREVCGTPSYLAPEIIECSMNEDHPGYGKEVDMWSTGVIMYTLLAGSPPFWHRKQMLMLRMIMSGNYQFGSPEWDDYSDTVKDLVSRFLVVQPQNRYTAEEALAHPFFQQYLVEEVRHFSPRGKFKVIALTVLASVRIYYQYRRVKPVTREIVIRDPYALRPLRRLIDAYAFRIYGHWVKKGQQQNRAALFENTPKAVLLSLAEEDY
T2 sequence (Q9UEE5 whole entry): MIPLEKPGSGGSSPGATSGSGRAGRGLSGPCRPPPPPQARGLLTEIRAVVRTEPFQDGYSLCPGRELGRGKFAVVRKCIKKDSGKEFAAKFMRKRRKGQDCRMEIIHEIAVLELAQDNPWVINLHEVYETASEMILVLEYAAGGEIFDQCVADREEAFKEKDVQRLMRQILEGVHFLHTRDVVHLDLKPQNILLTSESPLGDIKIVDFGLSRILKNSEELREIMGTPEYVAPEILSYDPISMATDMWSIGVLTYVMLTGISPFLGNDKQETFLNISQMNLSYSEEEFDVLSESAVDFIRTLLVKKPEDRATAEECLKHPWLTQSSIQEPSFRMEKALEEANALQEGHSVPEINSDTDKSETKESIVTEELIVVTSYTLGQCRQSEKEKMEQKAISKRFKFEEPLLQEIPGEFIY
T4 sequence (P00519 whole entry F317L): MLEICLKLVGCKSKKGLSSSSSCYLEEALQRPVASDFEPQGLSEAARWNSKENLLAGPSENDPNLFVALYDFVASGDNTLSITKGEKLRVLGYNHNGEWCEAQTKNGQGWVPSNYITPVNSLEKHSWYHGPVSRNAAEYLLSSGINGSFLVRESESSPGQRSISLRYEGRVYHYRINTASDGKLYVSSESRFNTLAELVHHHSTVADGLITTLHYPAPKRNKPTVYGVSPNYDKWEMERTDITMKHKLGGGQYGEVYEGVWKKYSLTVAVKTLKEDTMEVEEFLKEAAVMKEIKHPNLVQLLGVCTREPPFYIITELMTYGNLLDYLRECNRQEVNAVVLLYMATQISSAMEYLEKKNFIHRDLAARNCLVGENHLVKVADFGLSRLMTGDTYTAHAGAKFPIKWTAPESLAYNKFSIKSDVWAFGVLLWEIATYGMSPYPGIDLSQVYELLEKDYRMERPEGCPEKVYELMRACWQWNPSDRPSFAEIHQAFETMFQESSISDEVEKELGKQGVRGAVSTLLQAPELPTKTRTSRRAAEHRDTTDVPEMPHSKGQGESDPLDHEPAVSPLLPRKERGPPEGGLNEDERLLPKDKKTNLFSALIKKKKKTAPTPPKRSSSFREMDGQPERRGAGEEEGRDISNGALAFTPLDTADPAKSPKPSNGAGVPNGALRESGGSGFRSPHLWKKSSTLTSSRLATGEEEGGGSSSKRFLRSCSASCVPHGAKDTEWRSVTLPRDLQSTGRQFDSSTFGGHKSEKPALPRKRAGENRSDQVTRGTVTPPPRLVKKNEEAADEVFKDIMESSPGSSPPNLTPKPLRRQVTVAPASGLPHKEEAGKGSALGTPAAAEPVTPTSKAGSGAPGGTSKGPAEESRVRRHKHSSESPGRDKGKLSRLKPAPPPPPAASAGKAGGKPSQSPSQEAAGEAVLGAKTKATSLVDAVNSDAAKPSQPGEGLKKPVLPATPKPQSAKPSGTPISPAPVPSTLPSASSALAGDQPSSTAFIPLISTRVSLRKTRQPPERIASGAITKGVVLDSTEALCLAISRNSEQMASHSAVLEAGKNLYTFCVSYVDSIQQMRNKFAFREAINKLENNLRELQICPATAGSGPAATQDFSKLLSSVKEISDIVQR
Chain of CSNK1A1 (P48729 whole entry): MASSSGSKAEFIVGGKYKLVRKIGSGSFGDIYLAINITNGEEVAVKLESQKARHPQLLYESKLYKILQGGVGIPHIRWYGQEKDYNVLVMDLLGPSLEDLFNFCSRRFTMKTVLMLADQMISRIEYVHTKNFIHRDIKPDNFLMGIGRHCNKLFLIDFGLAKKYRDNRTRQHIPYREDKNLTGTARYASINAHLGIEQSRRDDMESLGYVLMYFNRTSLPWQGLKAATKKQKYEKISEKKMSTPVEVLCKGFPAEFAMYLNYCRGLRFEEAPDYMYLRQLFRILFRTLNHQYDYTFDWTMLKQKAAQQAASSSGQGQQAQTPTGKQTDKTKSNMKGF
Chain of MYLK4 (Q86YV6 whole entry): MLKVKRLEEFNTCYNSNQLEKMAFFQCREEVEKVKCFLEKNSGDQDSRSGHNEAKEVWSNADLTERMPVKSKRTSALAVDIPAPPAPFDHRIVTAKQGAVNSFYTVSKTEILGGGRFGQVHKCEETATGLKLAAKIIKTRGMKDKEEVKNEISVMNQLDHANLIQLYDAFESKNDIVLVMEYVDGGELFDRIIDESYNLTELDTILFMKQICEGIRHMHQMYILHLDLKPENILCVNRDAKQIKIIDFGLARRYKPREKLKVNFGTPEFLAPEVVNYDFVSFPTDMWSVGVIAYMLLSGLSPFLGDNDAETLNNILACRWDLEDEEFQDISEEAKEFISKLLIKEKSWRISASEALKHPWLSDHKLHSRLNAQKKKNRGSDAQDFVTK
Chain of TAOK2 (Q9UL54 whole entry): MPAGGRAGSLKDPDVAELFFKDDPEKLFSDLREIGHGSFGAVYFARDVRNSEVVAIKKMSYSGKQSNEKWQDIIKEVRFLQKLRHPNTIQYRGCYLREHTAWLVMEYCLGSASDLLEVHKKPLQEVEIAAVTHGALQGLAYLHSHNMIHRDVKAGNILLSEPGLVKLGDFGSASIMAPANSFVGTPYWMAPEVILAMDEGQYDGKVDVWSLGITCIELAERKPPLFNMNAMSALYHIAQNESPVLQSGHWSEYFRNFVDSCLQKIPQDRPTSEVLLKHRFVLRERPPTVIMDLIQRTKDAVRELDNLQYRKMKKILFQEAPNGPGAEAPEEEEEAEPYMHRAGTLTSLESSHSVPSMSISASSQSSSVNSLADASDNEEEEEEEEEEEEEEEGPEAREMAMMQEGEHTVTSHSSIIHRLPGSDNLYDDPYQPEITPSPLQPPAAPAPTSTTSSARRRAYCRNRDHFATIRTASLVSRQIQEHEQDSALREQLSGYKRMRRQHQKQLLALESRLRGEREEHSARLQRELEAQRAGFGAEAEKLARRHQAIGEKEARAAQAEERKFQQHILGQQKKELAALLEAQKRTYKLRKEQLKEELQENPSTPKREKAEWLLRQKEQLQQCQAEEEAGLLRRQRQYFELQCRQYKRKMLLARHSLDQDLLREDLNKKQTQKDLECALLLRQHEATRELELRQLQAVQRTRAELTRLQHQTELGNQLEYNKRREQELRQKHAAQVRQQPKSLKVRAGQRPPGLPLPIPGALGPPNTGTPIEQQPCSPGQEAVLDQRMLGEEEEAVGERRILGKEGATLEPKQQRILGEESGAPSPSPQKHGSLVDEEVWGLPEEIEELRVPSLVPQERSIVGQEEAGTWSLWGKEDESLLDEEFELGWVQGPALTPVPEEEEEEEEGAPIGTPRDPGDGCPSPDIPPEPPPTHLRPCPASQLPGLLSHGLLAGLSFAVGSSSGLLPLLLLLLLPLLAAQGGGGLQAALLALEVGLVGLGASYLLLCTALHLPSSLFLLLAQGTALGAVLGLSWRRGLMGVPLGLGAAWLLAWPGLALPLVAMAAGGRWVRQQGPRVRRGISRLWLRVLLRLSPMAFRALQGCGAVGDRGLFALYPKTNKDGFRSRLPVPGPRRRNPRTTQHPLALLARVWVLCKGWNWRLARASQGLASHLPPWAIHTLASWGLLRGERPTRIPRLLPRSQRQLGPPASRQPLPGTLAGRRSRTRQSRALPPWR
Chain of BRAF (P15056 whole entry): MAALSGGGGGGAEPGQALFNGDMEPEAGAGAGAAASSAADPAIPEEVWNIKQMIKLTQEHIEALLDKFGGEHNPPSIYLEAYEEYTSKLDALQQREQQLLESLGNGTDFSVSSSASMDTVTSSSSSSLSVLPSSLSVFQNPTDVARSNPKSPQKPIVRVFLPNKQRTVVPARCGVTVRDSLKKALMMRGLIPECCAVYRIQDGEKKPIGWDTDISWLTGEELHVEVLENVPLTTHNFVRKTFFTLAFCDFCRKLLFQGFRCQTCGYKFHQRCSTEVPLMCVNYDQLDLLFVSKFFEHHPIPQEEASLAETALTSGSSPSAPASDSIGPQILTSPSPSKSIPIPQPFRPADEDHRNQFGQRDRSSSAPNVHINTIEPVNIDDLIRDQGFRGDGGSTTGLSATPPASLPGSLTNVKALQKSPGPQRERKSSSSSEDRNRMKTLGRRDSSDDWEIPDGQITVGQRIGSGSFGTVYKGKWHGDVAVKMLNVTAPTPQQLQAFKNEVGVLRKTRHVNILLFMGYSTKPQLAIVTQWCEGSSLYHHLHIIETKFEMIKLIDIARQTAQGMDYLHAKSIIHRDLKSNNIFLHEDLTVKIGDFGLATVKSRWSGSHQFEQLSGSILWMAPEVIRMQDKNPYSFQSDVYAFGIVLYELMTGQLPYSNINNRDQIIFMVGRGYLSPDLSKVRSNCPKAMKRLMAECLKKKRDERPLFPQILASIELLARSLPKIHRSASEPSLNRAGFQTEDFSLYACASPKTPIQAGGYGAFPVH

remaining binding at 100 µM [1]: 81%
remaining binding at 100 µM [2]: 100%
remaining binding at 100 µM [3]: 78%
remaining binding at 100 µM [4]: 72%
remaining binding at 100 µM [5]: 81%
remaining binding at 100 µM [6]: 86%
remaining binding at 100 µM [7]: 89%
remaining binding at 100 µM [8]: 62%
remaining binding at 100 µM [9]: 95%
remaining binding at 100 µM [10]: 78%
remaining binding at 100 µM [11]: 93%
remaining binding at 100 µM [12]: 83%
remaining binding at 100 µM [13]: 68%
remaining binding at 100 µM [14]: 91%
remaining binding at 100 µM [15]: 77%
remaining binding at 100 µM [16]: 83%
remaining binding at 100 µM [17]: 93%
remaining binding at 100 µM [18]: 63%
remaining binding at 100 µM [19]: 90%
remaining binding at 100 µM [20]: 68%
remaining binding at 100 µM [21]: 100%
remaining binding at 100 µM [22]: 77%
SMILES: C=C(C)[C@H]1CC=C(C)C(=O)C1 [S-carvone]
